# Test results published in publication PMC8070004, “Isorhamnetin Ameliorates Dry Eye Disease via CFTR Activation in Mice” (International Journal of Molecular Sciences, 2021).
# Tests used:
# [1] = tested on: pro-inflammatory cytokine mRNA expression; assay: Real-time PCR of pro-inflammatory cytokines in cornea and conjunctiva of dry eye mice; type: in vivo, mouse
# Procedure: Eight-week-old C57BL/6 mice were used for this experiment. Experimental dry eye was induced by subcutaneous injection of 0.5 mg/100 μL scopolamine hydrobromide (Sigma-Aldrich, St. Louis, MO, USA) three times a day with a standard desiccating environment created by placing the mice in a chamber with a continuous air flow (15 L/min) in a room at 25 °C with an ambient humidity of 12%. Fourteen days after the initiation of experimental dry eye, the mice were treated or not with 5-μL drop of ophthalmic formulation (30 μM isorhamnetin in PBS with 0.1% DMSO) or vehicle three times a day. Eight days after the initiation of the formulation treatment, scopolamine injection was stopped. Ten days after the initiation of the formulation treatment, measurement of tear volume, corneal disruption, and relative mRNA level was performed.
# The mRNA expressions of IL-1β, IL-6, IL-8, TNF-α, IFN-γ, and MMP-9 in cornea and conjunctiva of the dry eye model-treated mice were measured by qPCR. RNA was isolated using TRIzol reagent (Invitrogen, Carlsbad, CA, USA), and 1 μg of RNA was used to synthesize complementary DNA (cDNA) using RNA to cDNA EcoDryTM premix (TaKaRa, Shiga, Japan) according to the manufacturer’s protocol. The relative mRNA levels were measured in ViiA7 (Applied Biosystems, Foster City, CA, USA) using SYBR Green PCR Master Mix (Applied Biosystems). The primer sequences used were as follows: GAPDH, sense (5-[…]-3) and antisense (5-[…]-3), size of PCR product 155 base pairs; IL-1β, sense (5-[…]-3) and antisense (5-[…]-3), size of PCR product 199 base pairs; IL-6, sense (5-[…]-3) and antisense (5-[…]-3), size of PCR product 131 base pairs; IL-8, sense (5-[…]-3) and antisense (5-[…]-3), size of PCR product 190 base pairs; TNF-α, sense (5-[…]-3) and antisense (5-[…]-3), size of PCR product 166 base pairs; IFN-γ, sense (5-[…]-3) and antisense (5- […]-3), size of PCR product 156 base pairs; and MMP-9, sense (5-[…]-3) and antisense (5-[…]-3), size of PCR product 190 base pairs. The mRNA levels of the cytokines and MMP-9 were normalized to GAPDH levels and the fold-change in gene expression was determined by using 2^-ΔΔCT method.
# [2] = tested on: corneal epithelial (CorE) cells; assay: MTS cell viability assay in CorE cells; type: cell-based, human; conditions: 48 h; isorhamnetin 30 μM, Triton X-100 0.01%
# Procedure: Immortalized human CorE [47] and immortalized human ConjE (Innoprot, Bizkaia, Spain) cells were plated on 96-well microplates. After 24 h incubation, cells were treated with 30 μM isorhamnetin or 0.01% Triton X-100 and then they were incubated for two days. An equal amount of DMSO was added to the control. The culture medium and the compounds were changed every 12 h. To assess cell proliferation, after 48 h of incubation with the compound, the cells were reincubated with MTS for 1 h. The soluble formazan produced by cellular reduction of MTS was quantified by measuring the absorbance at 490 nm with Infinite M200 (Tecan, Grödig, Austria) microplate reader. MTS assay was done using CellTiter 96 AQueous One Solution Cell Proliferation Assay kit (Promega, Madison, WI, USA).
# [3] = tested on: scopolamine-induced dry eye mice; assay: Scopolamine-induced dry eye mouse model (corneal fluorescein staining, tear volume); type: in vivo; conditions: 30 µM, three times a day for 10 days
# Procedure: Tear volume was measured using phenol red threads (Zone-Quick, Oasis Medical, Glendora, CA, USA) by placing them in the lateral canthi of normal CD-1 or dry eye model-treated BL6 mice for 10 s using forceps. Tear volume was measured using a Vernier caliper as the length of thread wetting under a microscope. For normal CD-1 mice, serial measurements were done to evaluate compound pharmacodynamics compared to the vehicle after topical application of a single, 2.5-μL drop of compound formulations containing 20 μM forskolin, 30 μM isorhamnetin, or 20 μM CFTRinh-172 in PBS with 0.1% DMSO.
# To assess corneal epithelial disruption, 5 μL of fluorescein dye (1%) were applied to the ocular surface of mice. Photographs of the eye were taken with a digital camera. Each cornea was scored from 0 to 5 according to the Oxford scheme.
# Eight-week-old C57BL/6 mice were used for this experiment. Experimental dry eye was induced by subcutaneous injection of 0.5 mg/100 μL scopolamine hydrobromide (Sigma-Aldrich, St. Louis, MO, USA) three times a day with a standard desiccating environment created by placing the mice in a chamber with a continuous air flow (15 L/min) in a room at 25 °C with an ambient humidity of 12%. […]
# intracellular cAMP = assay: cAMP assay in FRT cells; type: cell-based, rat; conditions: 30 µM
# Procedure: FRT cells grown on 96-well culture plates were washed three times with PBS at 37 °C and then incubated in induction buffer from a cAMP assay kit (cAMP-Glo Assay; Promega, Madison, WI, USA) at 37 °C containing 100 μM 3-isobutyl-1-methylxanthine (IBMX) for 10 min in the absence or presence of forskolin or isorhamnetin. Cytosolic cAMP was measured using the kit according to the manufacturer’s protocol.
# WT-CFTR = WT-CFTR (Homo sapiens, UniProt P13569); assay: Apical membrane current in WT-CFTR expressing FRT cells; type: cell-based; design: expressed in transfected cells; host or cells: FRT (Fisher rat thyroid) cells, provided by Dr. Alan Verkman
# Sequence of WT-CFTR (P13569 whole entry): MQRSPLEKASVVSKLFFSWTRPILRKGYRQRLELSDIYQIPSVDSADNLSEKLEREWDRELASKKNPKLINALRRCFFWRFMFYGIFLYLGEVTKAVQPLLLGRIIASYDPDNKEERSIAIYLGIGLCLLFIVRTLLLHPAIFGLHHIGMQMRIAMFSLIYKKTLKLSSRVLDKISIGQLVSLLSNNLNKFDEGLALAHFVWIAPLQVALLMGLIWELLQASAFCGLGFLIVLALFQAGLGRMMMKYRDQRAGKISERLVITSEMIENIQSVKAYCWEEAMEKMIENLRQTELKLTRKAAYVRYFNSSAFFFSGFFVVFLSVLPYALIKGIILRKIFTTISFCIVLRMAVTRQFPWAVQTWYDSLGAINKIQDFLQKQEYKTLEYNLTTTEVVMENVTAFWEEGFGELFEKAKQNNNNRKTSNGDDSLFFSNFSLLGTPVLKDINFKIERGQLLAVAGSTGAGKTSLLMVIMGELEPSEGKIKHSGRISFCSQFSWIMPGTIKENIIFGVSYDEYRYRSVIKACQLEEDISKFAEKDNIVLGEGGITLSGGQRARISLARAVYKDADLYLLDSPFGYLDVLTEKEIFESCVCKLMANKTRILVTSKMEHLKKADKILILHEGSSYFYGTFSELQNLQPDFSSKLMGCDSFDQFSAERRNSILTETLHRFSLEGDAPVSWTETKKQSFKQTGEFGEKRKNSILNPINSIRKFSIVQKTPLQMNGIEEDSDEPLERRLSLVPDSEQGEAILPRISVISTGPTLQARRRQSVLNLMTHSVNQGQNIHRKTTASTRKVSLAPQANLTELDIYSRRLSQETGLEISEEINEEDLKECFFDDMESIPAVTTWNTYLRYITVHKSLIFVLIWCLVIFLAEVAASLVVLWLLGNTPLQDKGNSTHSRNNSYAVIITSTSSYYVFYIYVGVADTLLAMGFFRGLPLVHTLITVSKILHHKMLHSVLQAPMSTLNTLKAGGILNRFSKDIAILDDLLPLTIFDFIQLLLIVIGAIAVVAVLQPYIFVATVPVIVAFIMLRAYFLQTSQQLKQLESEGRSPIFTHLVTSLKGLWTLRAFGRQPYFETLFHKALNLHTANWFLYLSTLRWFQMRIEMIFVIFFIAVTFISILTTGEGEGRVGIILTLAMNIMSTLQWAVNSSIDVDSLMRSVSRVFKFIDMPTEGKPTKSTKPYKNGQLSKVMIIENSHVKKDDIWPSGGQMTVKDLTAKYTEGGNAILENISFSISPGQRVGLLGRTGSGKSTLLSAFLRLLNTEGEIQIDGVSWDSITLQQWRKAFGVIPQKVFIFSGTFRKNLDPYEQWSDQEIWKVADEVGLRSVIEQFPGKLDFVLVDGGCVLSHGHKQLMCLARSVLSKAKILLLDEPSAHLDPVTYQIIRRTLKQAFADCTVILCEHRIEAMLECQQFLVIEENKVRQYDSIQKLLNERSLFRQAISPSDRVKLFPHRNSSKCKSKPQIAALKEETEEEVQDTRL
# Procedure: Snapwell inserts containing CFTR-expressing FRT and T84 cells were mounted in Ussing chambers (Physiologic Instruments, San Diego, CA, USA). Forskolin, isorhamnetin, and CFTRinh-172 were added to the apical and basolateral bath solution. For FRT cells, the apical bath was filled with a half-Cl^− solution and the basolateral bath was filled with HCO^3--buffered solution to generate transepithelial Cl^− gradient (apical, 64 mM; basolateral, 129 mM), and the basolateral membrane was permeabilized with 250 µg/mL amphotericin B. For T84 cells, symmetrical HCO^3--buffered solutions were used, and ENaC was inhibited with amiloride (100 µM). All cells were bathed for a 20-min stabilization period and aerated with 95% O2/5% CO2 at 37 °C. Apical membrane current and short-circuit current were measured with an EVC4000 Multi-Channel V/I Clamp (World Precision Instruments, Sarasota, FL, USA) and recorded using PowerLab 4/35 (AD Instruments, Castle Hill, Australia). Data were collected and analyzed with ADInstruments acquisition software Labchart Pro 7 software. The sampling rate was 4 Hz.
# [4] = cornea of the dry eye mouse model
compound,measurement,setting,value
COc1cc(-c2oc3cc(O)cc(O)c3c(=O)c2O)ccc1O [isorhamnetin],IL-1β expression,[1]; [4],significantly reduced
same,IL-8 expression,[1]; [4],significantly reduced
same,TNF-α expression,[1]; [4],significantly reduced
same,mRNA expression of cytokines in cornea and conjunctiva,[1]; dry eye mice treated with isorhamnetin for 10 days,strongly reduced
same,"cell viability (MTS), CorE cells",[2],did not affect the cell viability
same,corneal erosion (fluorescein staining),[3],significantly reduced
same,tear volume in dry eye mice,[3],increased
same,intracellular cAMP levels,intracellular cAMP,did not alter
same,EC50,WT-CFTR,6.6 ± 1.1 µM
same,CFTR activation (apical membrane current),"WT-CFTR; 30 μM, current not further increased by 20 μM forskolin",fully activated
